Laboratory results as given in ChEMBL document CHEMBL3885861, “Open TG-GATES”.

Species on record: Rattus norvegicus
Test: Open TG-GATES - Regimen: Daily Repeat
Format: toxicity, organism-based, Sprague-Dawley
Parameters: regimen Daily Repeat, gender Male, age 6 weeks
Details: in vivo, po, 2000 mg/kg, […], route gavage, dose level High; for KIDNEY_L / KIDNEY_R / KIDNEY_TOTAL: tissue Kidney; for LIVER: tissue Liver; for A/G / ALP / ALT / AST / BUN / CRE / Ca / Cl / DBIL / GLC / IP / K / LDH / Na / PL / RALB / TBIL / TC / TG / TP / gamma-GTP: tissue Plasma

Structure (SMILES): CC(N)=O [ACETAMIDE]
- Neu (tissue Blood, time 28 day): 15.6%
- Plat (tissue Blood, time 28 day): 88.6 x10_4/uL
- RBC (tissue Blood, time 28 day): 763.8 x10_4/ul
- Ret (tissue Blood, time 28 day): 2.6%
- WBC (tissue Blood, time 28 day): 121.1 x10_2/uL
- KIDNEY_L (time 7 day): 1.1 g
- KIDNEY_R (time 7 day): 1.1 g
- KIDNEY_TOTAL (time 7 day): 2.3 g
- KIDNEY_L (time 14 day): 1.3 g
- KIDNEY_R (time 14 day): 1.3 g
- KIDNEY_TOTAL (time 14 day): 2.6 g
- KIDNEY_L (time 28 day): 1.5 g
- KIDNEY_R (time 28 day): 1.6 g
- KIDNEY_TOTAL (time 28 day): 3.1 g
- LIVER (time 7 day): 10.6 g
- LIVER (time 14 day): 11.7 g
- LIVER (time 28 day): 14.4 g
- A/G (time 7 day): 1
- ALP (time 7 day): 2391.2 IU/L
- ALT (time 7 day): 74.6 IU/L
- AST (time 7 day): 114.4 IU/L
- BUN (time 7 day): 18.5 mg/dL
- CRE (time 7 day): 0.2 mg/dL
- Ca (time 7 day): 10.5 mg/dL
- Cl (time 7 day): 103.1 meq/L
- DBIL (time 7 day): 0.02 mg/dL
- GLC (time 7 day): 194.8 mg/dL
- IP (time 7 day): 5.9 mg/dL
- K (time 7 day): 4.2 meq/L
- LDH (time 7 day): 251.2 IU/L
- Na (time 7 day): 141.3 meq/L
- PL (time 7 day): 170.8 mg/dL
- RALB (time 7 day): 2.8 g/dL
- TBIL (time 7 day): 0.028 mg/dL
- TC (time 7 day): 89.8 mg/dL
- TG (time 7 day): 94 mg/dL
- TP (time 7 day): 5.6 g/dL
- gamma-GTP (time 7 day): 1.1 IU/L
- A/G (time 14 day): 0.9
- ALP (time 14 day): 1866.6 IU/L
- ALT (time 14 day): 90.6 IU/L
- AST (time 14 day): 159.8 IU/L
- BUN (time 14 day): 17.1 mg/dL
- CRE (time 14 day): 0.2 mg/dL
- Ca (time 14 day): 10.1 mg/dL
- Cl (time 14 day): 103.9 meq/L
- DBIL (time 14 day): 0.054 mg/dL
- GLC (time 14 day): 187.8 mg/dL
- IP (time 14 day): 6 mg/dL
- K (time 14 day): 4.2 meq/L
- LDH (time 14 day): 232.2 IU/L
- Na (time 14 day): 141.6 meq/L
- PL (time 14 day): 156.2 mg/dL
- RALB (time 14 day): 2.7 g/dL
- TBIL (time 14 day): 0.07 mg/dL
- TC (time 14 day): 87.2 mg/dL
- TG (time 14 day): 77.7 mg/dL
- TP (time 14 day): 5.5 g/dL
- gamma-GTP (time 14 day): 1.6 IU/L
- A/G (time 28 day): 0.9
- ALP (time 28 day): 1427.6 IU/L
- ALT (time 28 day): 55.6 IU/L
- AST (time 28 day): 87.4 IU/L
- BUN (time 28 day): 18 mg/dL
- CRE (time 28 day): 0.2 mg/dL
- Ca (time 28 day): 10.2 mg/dL
- Cl (time 28 day): 104.2 meq/L
- DBIL (time 28 day): 0.01 mg/dL
- GLC (time 28 day): 199 mg/dL
- IP (time 28 day): 5.3 mg/dL
- K (time 28 day): 4.1 meq/L
- LDH (time 28 day): 286.2 IU/L
- Na (time 28 day): 141.9 meq/L
- PL (time 28 day): 136.2 mg/dL
- RALB (time 28 day): 2.8 g/dL
- TBIL (time 28 day): 0.01 mg/dL
- TC (time 28 day): 65.8 mg/dL
- TG (time 28 day): 102.2 mg/dL
- TP (time 28 day): 6 g/dL
- gamma-GTP (time 28 day): 0.8 IU/L
